From PMC4490784, “Compensatory induction of MYC expression by sustained CDK9 inhibition via a BRD4-dependent mechanism” (eLife, 2015)

Legend:
Test in all cases: KINOMEscan binding assay
[1] = target: T1, ABL1(H396P)-nonphosphorylated (Homo sapiens, UniProt P00519, H396P); details: read-out: % Retention on Solid Support
T1 construct: purchased DiscoveRx KINOMEscan
Procedure, shortened: (§1)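 Panel of >400 kinases screened by active-site competition binding, compound at 1 and 10 µM.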

[2] = target: T2, ABL1(Q252H)-nonphosphorylated (Homo sapiens, UniProt P00519, Q252H); details: read-out: % Retention on Solid Support
T2 construct: purchased DiscoveRx KINOMEscan
Procedure, shortened: as §1

[3] = target: T3, ABL1(T315I)-nonphosphorylated (Homo sapiens, UniProt P00519, T315I); details: read-out: % Retention on Solid Support
T3 construct: purchased DiscoveRx KINOMEscan
Procedure, shortened: as §1

[4] = target: T4, ABL1-nonphosphorylated (Homo sapiens, UniProt P00519); details: read-out: % Retention on Solid Support
T4 construct: purchased DiscoveRx KINOMEscan
Procedure, shortened: as §1

[5] = target: T5, ALK (Homo sapiens, UniProt Q9UM73); details: read-out: % Retention on Solid Support
T5 construct: purchased DiscoveRx KINOMEscan
T5 sequence (Q9UM73 19-1620): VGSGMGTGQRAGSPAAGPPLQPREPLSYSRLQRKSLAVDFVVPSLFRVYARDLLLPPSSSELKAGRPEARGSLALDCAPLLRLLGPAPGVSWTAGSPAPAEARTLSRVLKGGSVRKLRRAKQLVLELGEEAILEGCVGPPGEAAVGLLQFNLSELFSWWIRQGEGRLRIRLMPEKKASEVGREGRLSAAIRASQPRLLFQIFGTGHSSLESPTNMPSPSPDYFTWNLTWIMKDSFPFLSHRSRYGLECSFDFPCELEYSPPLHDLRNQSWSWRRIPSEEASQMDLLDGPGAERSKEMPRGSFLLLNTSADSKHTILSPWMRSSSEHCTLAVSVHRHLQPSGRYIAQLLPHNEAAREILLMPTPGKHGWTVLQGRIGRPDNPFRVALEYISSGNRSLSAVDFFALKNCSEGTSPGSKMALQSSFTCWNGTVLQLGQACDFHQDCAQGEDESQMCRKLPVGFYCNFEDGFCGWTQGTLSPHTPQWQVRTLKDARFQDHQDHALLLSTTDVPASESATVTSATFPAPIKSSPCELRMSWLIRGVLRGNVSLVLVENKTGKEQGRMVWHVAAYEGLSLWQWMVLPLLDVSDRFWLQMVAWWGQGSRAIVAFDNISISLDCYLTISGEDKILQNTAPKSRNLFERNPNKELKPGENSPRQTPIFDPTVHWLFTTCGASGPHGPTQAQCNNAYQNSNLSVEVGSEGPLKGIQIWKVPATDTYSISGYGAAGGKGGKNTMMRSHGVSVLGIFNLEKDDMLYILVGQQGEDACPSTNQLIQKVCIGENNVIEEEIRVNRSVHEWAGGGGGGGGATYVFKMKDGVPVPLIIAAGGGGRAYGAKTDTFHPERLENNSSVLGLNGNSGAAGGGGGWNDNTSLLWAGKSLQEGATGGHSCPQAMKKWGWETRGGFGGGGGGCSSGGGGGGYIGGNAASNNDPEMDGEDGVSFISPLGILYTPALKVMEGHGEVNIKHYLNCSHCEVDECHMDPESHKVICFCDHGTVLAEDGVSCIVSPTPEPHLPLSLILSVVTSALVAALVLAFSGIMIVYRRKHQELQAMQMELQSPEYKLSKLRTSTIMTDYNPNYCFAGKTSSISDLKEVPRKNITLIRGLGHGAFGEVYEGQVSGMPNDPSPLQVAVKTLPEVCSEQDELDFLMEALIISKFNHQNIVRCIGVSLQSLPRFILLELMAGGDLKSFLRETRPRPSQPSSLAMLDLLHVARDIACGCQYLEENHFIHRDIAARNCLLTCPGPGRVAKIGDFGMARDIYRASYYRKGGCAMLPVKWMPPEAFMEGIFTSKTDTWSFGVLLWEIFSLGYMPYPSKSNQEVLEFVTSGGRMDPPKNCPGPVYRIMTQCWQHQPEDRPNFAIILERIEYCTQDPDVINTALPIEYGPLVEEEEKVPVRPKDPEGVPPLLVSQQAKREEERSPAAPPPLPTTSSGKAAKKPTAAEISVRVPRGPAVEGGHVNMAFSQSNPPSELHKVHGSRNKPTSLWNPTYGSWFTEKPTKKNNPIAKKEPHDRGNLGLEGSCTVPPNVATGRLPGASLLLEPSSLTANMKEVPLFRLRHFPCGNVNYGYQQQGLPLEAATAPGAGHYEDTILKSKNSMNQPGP
Procedure, shortened: as §1

[6] = target: T6, AMPK-alpha1 (Homo sapiens, UniProt Q13131); details: read-out: % Retention on Solid Support
T6 construct: purchased DiscoveRx KINOMEscan
Procedure, shortened: as §1

[7] = target: T7, CAMK2D (Homo sapiens, UniProt Q13557); details: read-out: % Retention on Solid Support
T7 construct: purchased DiscoveRx KINOMEscan
T7 sequence (Q13557 whole entry): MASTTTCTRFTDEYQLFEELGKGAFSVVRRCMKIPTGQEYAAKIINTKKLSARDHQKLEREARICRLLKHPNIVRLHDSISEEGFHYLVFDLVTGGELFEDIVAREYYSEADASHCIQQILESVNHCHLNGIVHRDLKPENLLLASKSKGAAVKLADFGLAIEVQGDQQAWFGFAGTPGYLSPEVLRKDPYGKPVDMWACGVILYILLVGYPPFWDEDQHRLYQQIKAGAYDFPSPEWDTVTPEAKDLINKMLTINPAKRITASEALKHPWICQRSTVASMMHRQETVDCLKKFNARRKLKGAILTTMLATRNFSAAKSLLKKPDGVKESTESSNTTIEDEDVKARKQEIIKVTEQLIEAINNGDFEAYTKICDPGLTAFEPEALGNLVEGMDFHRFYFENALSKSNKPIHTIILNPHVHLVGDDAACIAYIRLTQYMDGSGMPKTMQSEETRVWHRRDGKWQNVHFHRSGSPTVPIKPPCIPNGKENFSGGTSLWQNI
Procedure, shortened: as §1

[8] = target: T8, CAMK2G (Homo sapiens, UniProt Q13555); details: read-out: % Retention on Solid Support
T8 construct: purchased DiscoveRx KINOMEscan
T8 sequence (Q13555 whole entry): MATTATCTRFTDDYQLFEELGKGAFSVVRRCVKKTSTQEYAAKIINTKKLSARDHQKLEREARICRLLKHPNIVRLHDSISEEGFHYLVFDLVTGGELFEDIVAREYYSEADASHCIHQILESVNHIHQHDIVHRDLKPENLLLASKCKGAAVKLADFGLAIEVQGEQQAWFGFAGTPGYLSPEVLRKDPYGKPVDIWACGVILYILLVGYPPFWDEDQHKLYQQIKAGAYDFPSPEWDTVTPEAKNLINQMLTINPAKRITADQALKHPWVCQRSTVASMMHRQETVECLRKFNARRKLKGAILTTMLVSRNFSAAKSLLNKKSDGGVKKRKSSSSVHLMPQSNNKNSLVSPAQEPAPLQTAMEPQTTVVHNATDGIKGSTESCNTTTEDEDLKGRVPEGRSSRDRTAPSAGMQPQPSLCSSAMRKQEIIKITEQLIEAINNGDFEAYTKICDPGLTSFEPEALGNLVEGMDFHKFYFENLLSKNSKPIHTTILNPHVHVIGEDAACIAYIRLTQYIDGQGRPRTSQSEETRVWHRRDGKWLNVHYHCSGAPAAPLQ
Procedure, shortened: as §1

[9] = target: T9, CDKL5 (Homo sapiens, UniProt O76039); details: read-out: % Retention on Solid Support
T9 construct: purchased DiscoveRx KINOMEscan
Procedure, shortened: as §1

[10] = target: T10, CSK (Homo sapiens, UniProt P41240)
T10 construct: purchased DiscoveRx KINOMEscan
Procedure, shortened: as §1

[11] = target: T11, DAPK1 (Homo sapiens, UniProt P53355); details: read-out: % Retention on Solid Support
T11 construct: purchased DiscoveRx KINOMEscan
Procedure, shortened: as §1

[12] = target: T12, DRAK1 (Homo sapiens, UniProt Q9UEE5); details: read-out: % Retention on Solid Support
T12 construct: purchased DiscoveRx KINOMEscan
Procedure, shortened: as §1

[13] = target: T13, EPHB2 (Homo sapiens, UniProt P29323)
T13 construct: purchased DiscoveRx KINOMEscan
Procedure, shortened: as §1

[14] = target: T14, ERBB3 (Homo sapiens, UniProt P21860); details: read-out: % Retention on Solid Support
T14 construct: purchased DiscoveRx KINOMEscan
Procedure, shortened: as §1

[15] = target: T15, FLT3(D835Y) (Homo sapiens, UniProt P36888, D835Y); details: read-out: % Retention on Solid Support
T15 construct: purchased DiscoveRx KINOMEscan
Procedure, shortened: as §1

[16] = target: T16, LRRK2(G2019S) (Homo sapiens, UniProt Q5S007, G2019S); details: 1 µM i-CDK9; read-out: % Retention on Solid Support
T16 construct: purchased DiscoveRx KINOMEscan
Procedure, shortened: as §1

[17] = target: T17, MKNK1 (Homo sapiens, UniProt Q9BUB5); details: read-out: % Retention on Solid Support
T17 construct: purchased DiscoveRx KINOMEscan
Procedure, shortened: as §1

[18] = target: T18, MLK1 (Homo sapiens, UniProt P80192); details: read-out: % Retention on Solid Support
T18 construct: purchased DiscoveRx KINOMEscan
Procedure, shortened: as §1

[19] = target: T19, NDR1 (Homo sapiens, UniProt Q15208); details: read-out: % Retention on Solid Support
T19 construct: purchased DiscoveRx KINOMEscan
Procedure, shortened: as §1

[20] = target: T20, NEK2 (Homo sapiens, UniProt P51955); details: read-out: % Retention on Solid Support
T20 construct: purchased DiscoveRx KINOMEscan
Procedure, shortened: as §1

[21] = target: T21, PIK3C2B (Homo sapiens, UniProt O00750); details: read-out: % Retention on Solid Support
T21 construct: purchased DiscoveRx KINOMEscan
T21 sequence (O00750 whole entry): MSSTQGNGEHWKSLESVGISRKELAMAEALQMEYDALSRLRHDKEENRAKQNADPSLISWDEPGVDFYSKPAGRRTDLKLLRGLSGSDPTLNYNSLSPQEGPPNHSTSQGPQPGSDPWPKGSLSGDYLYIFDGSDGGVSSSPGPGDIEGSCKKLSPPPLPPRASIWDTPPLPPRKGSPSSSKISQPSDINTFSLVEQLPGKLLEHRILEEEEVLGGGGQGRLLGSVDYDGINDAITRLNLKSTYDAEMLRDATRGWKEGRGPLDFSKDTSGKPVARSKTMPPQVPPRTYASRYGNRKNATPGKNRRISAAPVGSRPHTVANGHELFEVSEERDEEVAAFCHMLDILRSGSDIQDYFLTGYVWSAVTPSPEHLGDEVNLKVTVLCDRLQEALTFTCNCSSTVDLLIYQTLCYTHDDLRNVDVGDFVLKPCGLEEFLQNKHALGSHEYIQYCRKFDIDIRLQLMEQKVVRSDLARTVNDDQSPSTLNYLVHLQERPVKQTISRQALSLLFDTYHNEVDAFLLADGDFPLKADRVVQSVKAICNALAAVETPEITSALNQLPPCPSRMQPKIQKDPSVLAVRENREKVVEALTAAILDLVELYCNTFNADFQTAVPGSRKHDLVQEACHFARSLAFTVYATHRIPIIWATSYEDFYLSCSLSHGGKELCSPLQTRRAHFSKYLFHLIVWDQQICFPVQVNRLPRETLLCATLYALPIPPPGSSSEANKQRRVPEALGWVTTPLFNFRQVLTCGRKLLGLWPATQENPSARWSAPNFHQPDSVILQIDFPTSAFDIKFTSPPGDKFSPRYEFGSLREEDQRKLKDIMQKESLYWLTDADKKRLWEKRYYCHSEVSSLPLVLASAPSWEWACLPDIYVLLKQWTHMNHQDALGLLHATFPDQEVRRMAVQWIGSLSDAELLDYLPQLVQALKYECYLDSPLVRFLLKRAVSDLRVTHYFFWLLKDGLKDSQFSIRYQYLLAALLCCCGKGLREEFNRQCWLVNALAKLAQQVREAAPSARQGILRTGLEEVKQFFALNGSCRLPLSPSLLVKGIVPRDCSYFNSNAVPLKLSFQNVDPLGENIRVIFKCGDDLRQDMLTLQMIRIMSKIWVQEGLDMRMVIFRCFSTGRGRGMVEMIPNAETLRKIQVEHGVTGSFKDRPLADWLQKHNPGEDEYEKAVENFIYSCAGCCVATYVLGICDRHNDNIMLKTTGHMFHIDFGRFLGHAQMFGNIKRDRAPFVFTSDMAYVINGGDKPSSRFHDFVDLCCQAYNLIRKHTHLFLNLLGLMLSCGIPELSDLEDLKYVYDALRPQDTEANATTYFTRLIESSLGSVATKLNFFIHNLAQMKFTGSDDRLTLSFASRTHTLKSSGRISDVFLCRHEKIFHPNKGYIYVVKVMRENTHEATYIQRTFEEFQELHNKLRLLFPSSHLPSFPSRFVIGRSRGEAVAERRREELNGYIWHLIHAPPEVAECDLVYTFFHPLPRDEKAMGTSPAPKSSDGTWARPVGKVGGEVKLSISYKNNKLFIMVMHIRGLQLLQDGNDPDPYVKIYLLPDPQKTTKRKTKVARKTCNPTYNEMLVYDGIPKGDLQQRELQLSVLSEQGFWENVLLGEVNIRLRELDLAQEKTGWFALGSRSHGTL
Procedure, shortened: as §1

[22] = target: T22, PIK3CA(H1047Y) (Homo sapiens, UniProt P42336, H1047Y); details: read-out: % Retention on Solid Support
T22 construct: purchased DiscoveRx KINOMEscan
Procedure, shortened: as §1

[23] = target: T23, PRKCI (Homo sapiens, UniProt P41743); details: 1 µM i-CDK9; read-out: % Retention on Solid Support
T23 construct: purchased DiscoveRx KINOMEscan
Procedure, shortened: as §1

[24] = target: T24, RET(M918T) (Homo sapiens, UniProt P07949, M918T); details: read-out: % Retention on Solid Support
T24 construct: purchased DiscoveRx KINOMEscan
Procedure, shortened: as §1

[25] = target: T25, RIOK2 (Homo sapiens, UniProt Q9BVS4); details: read-out: % Retention on Solid Support
T25 construct: purchased DiscoveRx KINOMEscan
Procedure, shortened: as §1

[26] = target: T26, RIPK5 (Homo sapiens, UniProt Q6XUX3); details: 1 µM i-CDK9; read-out: % Retention on Solid Support
T26 construct: purchased DiscoveRx KINOMEscan
Procedure, shortened: as §1

[27] = target: T27, ROCK2 (Homo sapiens, UniProt O75116); details: read-out: % Retention on Solid Support
T27 construct: purchased DiscoveRx KINOMEscan
Procedure, shortened: as §1

[28] = target: T28, TRKB (Homo sapiens, UniProt Q16620); details: read-out: % Retention on Solid Support
T28 construct: purchased DiscoveRx KINOMEscan
Procedure, shortened: as §1

[29] = target: T29, VRK2 (Homo sapiens, UniProt Q86Y07); details: 1 µM i-CDK9; read-out: % Retention on Solid Support
T29 construct: purchased DiscoveRx KINOMEscan
Procedure, shortened: as §1

[30] = target: T30, WEE2 (Homo sapiens, UniProt P0C1S8); details: read-out: % Retention on Solid Support
T30 construct: purchased DiscoveRx KINOMEscan
T30 sequence (P0C1S8 whole entry): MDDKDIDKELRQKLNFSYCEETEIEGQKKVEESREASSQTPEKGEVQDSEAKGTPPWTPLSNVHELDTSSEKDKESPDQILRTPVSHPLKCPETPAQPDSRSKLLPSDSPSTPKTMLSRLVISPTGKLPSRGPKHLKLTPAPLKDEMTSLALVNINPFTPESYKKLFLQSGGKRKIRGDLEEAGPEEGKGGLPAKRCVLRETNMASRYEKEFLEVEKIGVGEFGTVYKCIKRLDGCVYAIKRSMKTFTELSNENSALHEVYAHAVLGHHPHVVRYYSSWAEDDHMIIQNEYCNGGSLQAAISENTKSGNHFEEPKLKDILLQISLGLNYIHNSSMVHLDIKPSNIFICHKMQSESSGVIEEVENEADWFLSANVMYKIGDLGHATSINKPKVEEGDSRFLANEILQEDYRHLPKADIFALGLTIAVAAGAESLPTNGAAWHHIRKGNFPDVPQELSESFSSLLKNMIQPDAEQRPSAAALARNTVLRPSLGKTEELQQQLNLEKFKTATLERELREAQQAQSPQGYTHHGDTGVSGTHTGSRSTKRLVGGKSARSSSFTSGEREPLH
Procedure, shortened: as §1

N[C@H]1CC[C@H](Nc2cc(-c3cccc(NCc4cccc(F)c4)n3)c(Cl)cn2)CC1 [i-CDK9, N2′-(trans-4-aminocyclohexyl)-5′-chloro-N6-(3-fluorobenzyl)-2,4′-bipyridine-2′,6-diamine]
remaining binding at 1 µM ([1]; 1 µM i-CDK9): 45% | remaining binding at 10 µM ([1]; 10 µM i-CDK9): 97% | remaining binding at 1 µM ([2]; 1 µM i-CDK9): 55% | remaining binding at 10 µM ([2]; 10 µM i-CDK9): 91% | remaining binding at 1 µM ([3]; 1 µM i-CDK9): 100% | remaining binding at 10 µM ([3]; 10 µM i-CDK9): 83% | remaining binding at 1 µM ([4]; 1 µM i-CDK9): 81% | remaining binding at 10 µM ([4]; 10 µM i-CDK9): 100% | remaining binding at 1 µM ([5]; 1 µM i-CDK9): 86% | remaining binding at 10 µM ([5]; 10 µM i-CDK9): 70% | remaining binding at 1 µM ([6]; 1 µM i-CDK9): 84% | remaining binding at 10 µM ([6]; 10 µM i-CDK9): 93% | remaining binding at 1 µM ([7]; 1 µM i-CDK9): 100% | remaining binding at 10 µM ([7]; 10 µM i-CDK9): 100% | remaining binding at 1 µM ([8]; 1 µM i-CDK9): 100% | remaining binding at 10 µM ([8]; 10 µM i-CDK9): 100% | remaining binding at 1 µM ([9]; 1 µM i-CDK9): 52% | remaining binding at 10 µM ([9]; 10 µM i-CDK9): 3.8% | % Retention on Solid Support ([10]; 1 µM i-CDK9): 100% | % Retention on Solid Support ([10]; 10 µM i-CDK9): 100% | remaining binding at 1 µM ([11]; 1 µM i-CDK9): 64% | remaining binding at 10 µM ([11]; 10 µM i-CDK9): 100% | remaining binding at 1 µM ([12]; 1 µM i-CDK9): 90% | remaining binding at 10 µM ([12]; 10 µM i-CDK9): 48% | % Retention on Solid Support ([13]; 1 µM i-CDK9): 100% | % Retention on Solid Support ([13]; 10 µM i-CDK9): 66% | remaining binding at 1 µM ([14]; 1 µM i-CDK9): 100% | remaining binding at 10 µM ([14]; 10 µM i-CDK9): 100% | remaining binding at 1 µM ([15]; 1 µM i-CDK9): 100% | remaining binding at 10 µM ([15]; 10 µM i-CDK9): 68% | remaining binding at 1 µM [16]: 100% | remaining binding at 1 µM ([17]; 1 µM i-CDK9): 100% | remaining binding at 10 µM ([17]; 10 µM i-CDK9): 100% | remaining binding at 1 µM ([18]; 1 µM i-CDK9): 100% | remaining binding at 10 µM ([18]; 10 µM i-CDK9): 100% | remaining binding at 1 µM ([19]; 1 µM i-CDK9): 100% | remaining binding at 10 µM ([19]; 10 µM i-CDK9): 88% | remaining binding at 1 µM ([20]; 1 µM i-CDK9): 77% | remaining binding at 10 µM ([20]; 10 µM i-CDK9): 100% | remaining binding at 1 µM ([21]; 1 µM i-CDK9): 100% | remaining binding at 10 µM ([21]; 10 µM i-CDK9): 95% | remaining binding at 1 µM ([22]; 1 µM i-CDK9): 100% | remaining binding at 10 µM ([22]; 10 µM i-CDK9): 100% | remaining binding at 1 µM [23]: 100% | remaining binding at 1 µM ([24]; 1 µM i-CDK9): 81% | remaining binding at 10 µM ([24]; 10 µM i-CDK9): 73% | remaining binding at 1 µM ([25]; 1 µM i-CDK9): 100% | remaining binding at 10 µM ([25]; 10 µM i-CDK9): 32% | remaining binding at 1 µM [26]: 100% | remaining binding at 1 µM ([27]; 1 µM i-CDK9): 100% | remaining binding at 10 µM ([27]; 10 µM i-CDK9): 90% | remaining binding at 1 µM ([28]; 1 µM i-CDK9): 100% | remaining binding at 10 µM ([28]; 10 µM i-CDK9): 100% | remaining binding at 1 µM [29]: 100% | remaining binding at 1 µM ([30]; 1 µM i-CDK9): 100% | remaining binding at 10 µM ([30]; 10 µM i-CDK9): 100%
